Test results: patent US8574831B2, “Mutational profiles in HIV-1 reverse transcriptase correlated with phenotypic drug resistance” (Virco N.V., priority 2000, dated 2013)

Test system: HIV with mutations in the HIV protease sequence
Test: Phenotypic fold resistance to protease inhibitors, protease mutations 84A/84L/84C/54M/54L/54V in a background (Examples 8-13)
Format: cell-based, HIV-1
How it was run: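 Recombinant-virus phenotyping: patient-derived PR/RT sequences amplified by PCR and recombined in CD4+ T cells into an HXB2 proviral clone deleted for those sequences. Chimeric viruses grown across drug concentrations; IC50 determined, and fold-resistance expressed as IC50 ratio versus wild-type susceptible laboratory HIV-1 tested in parallel.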

CC(C)(C)NC(=O)[C@@H]1CN(Cc2cccnc2)CCN1C[C@@H](O)C[C@@H](Cc1ccccc1)C(=O)N[C@H]1c2ccccc2C[C@H]1O [Indinavir, indinavir]
Fold change in IC50 (Table 12, V055199, genotype 10I + 33F + 54M + 90M): 2.3 fold | Fold change in IC50 (Table 13, V19263, genotype 77I): 0.4 fold | Fold change in IC50 (Table 13, V20160, genotype WT): 0.9 fold | Fold change in IC50 (Table 13, V021667, genotype 10I): 0.7 fold | Fold change in IC50 (Table 13, V030496, genotype 10I + 77I): 0.4 fold | Fold change in IC50 (Table 13, V048868, genotype 10I + 54L + 71V + 77I + 90M): 6.2 fold | Fold change in IC50 (Table 13, V048874, genotype 10I + 33F + 54L + 71V + 77I + 90M): 2.1 fold | Fold change in IC50 (Table 13, V048875, genotype 10I + 33F + 54L + 71V + 77I + 90M): 3.7 fold | Fold change in IC50 (Table 13, V048877, genotype 10I + 33F + 77I + 90M): 2.9 fold | Fold change in IC50 (Table 13, V048880, genotype 10I + 33F + 77I + 90M): 1.3 fold | Fold change in IC50 (Table 13, V052940, genotype 71V): 0.7 fold | Fold change in IC50 (Table 13, V052942, genotype 10I + 71V): 0.6 fold | Fold change in IC50 (Table 13, V052943, genotype 10I + 90M): 0.5 fold | Fold change in IC50 (Table 13, V052944, genotype 10I + 90M): 0.5 fold | Fold change in IC50 (Table 13, V052945, genotype 77I + 90M): 0.6 fold | Fold change in IC50 (Table 13, V052946, genotype 71V + 90M): 0.9 fold | Fold change in IC50 (Table 13, V052947, genotype 10I + 77I + 90M): 2.9 fold | Fold change in IC50 (Table 13, V052948, genotype 10I + 71V + 90M): 8.6 fold | Fold change in IC50 (Table 13, V052949, genotype 10I + 71V + 77I + 90M): 2.7 fold | Fold change in IC50 (Table 13, V052950, genotype 33F): 0.6 fold | Fold change in IC50 (Table 13, V052951, genotype 33F + 77I): 0.4 fold | Fold change in IC50 (Table 13, V052953, genotype 10I + 33F + 77I): 0.8 fold | Fold change in IC50 (Table 13, V052954, genotype 33F + 77I + 90M): 1.7 fold | Fold change in IC50 (Table 13, V052955, genotype 33F + 71V + 90M): 5.3 fold | Fold change in IC50 (Table 13, V052968, genotype 10L/I + 33F/L + 54L + 77I): 1.3 fold | Fold change in IC50 (Table 13, V052969, genotype 10I + 33F + 54L + 90M): 1.3 fold | Fold change in IC50 (Table 13, V052970, genotype 54L): 0.6 fold | Fold change in IC50 (Table 13, V052971, genotype 10I + 54L): 0.7 fold | Fold change in IC50 (Table 13, V052972, genotype 54L + 77I): 0.8 fold | Fold change in IC50 (Table 13, V052973, genotype 10I + 54L + 77I): 0.8 fold | Fold change in IC50 (Table 13, V052974, genotype 10I + 54L + 90M): 1.7 fold | Fold change in IC50 (Table 13, V052975, genotype 10I + 54L + 71V + 90M): 10.2 fold | Fold change in IC50 (Table 13, V052976, genotype 10I + 54L + 71V + 77I + 90M): 1.7 fold | Fold change in IC50 (Table 13, V053832, genotype 10I + 33F): 0.4 fold | Fold change in IC50 (Table 13, V053854, genotype 54L + 71V): 1.7 fold | Fold change in IC50 (Virco ID 214846, genotype 10I + 33F + 54V + 71V + 77I + 90M, vs mean IC50 of wild type laboratory HIV strain): 13.8 fold | Fold change in IC50 (Virco ID V021667, genotype 10I, vs mean IC50 of wild type laboratory HIV strain): 0.7 fold | Fold change in IC50 (Virco ID V030496, genotype 10I + 77I, vs mean IC50 of wild type laboratory HIV strain): 0.4 fold | Fold change in IC50 (Virco ID V048876, genotype 33F + 54V + 77I + 90M, vs mean IC50 of wild type laboratory HIV strain): 0.6 fold | Fold change in IC50 (Virco ID V048877, genotype 10I + 33F + 77I + 90M, vs mean IC50 of wild type laboratory HIV strain): 2.9 fold | Fold change in IC50 (Virco ID V048880, genotype 10I + 33F + 77I + 90M, vs mean IC50 of wild type laboratory HIV strain): 1.3 fold | Fold change in IC50 (Virco ID V052940, genotype 71V, vs mean IC50 of wild type laboratory HIV strain): 0.7 fold | Fold change in IC50 (Virco ID V052942, genotype 10I + 71V, vs mean IC50 of wild type laboratory HIV strain): 0.6 fold | Fold change in IC50 (Virco ID V052943, genotype 10I + 90M, vs mean IC50 of wild type laboratory HIV strain): 0.5 fold | Fold change in IC50 (Virco ID V052944, genotype 10I + 90M, vs mean IC50 of wild type laboratory HIV strain): 0.5 fold | Fold change in IC50 (Virco ID V052946, genotype 71V + 90M, vs mean IC50 of wild type laboratory HIV strain): 0.9 fold | Fold change in IC50 (Virco ID V052947, genotype 10I + 77I + 90M, vs mean IC50 of wild type laboratory HIV strain): 2.9 fold | Fold change in IC50 (Virco ID V052948, genotype 10I + 71V + 90M, vs mean IC50 of wild type laboratory HIV strain): 8.6 fold | Fold change in IC50 (Virco ID V052949, genotype 10I + 71V + 77I + 90M, vs mean IC50 of wild type laboratory HIV strain): 2.7 fold | Fold change in IC50 (Virco ID V052950, genotype 33F, vs mean IC50 of wild type laboratory HIV strain): 0.6 fold | Fold change in IC50 (Virco ID V052951, genotype 33F + 77I, vs mean IC50 of wild type laboratory HIV strain): 0.4 fold | Fold change in IC50 (Virco ID V052953, genotype 10I + 33F + 77I, vs mean IC50 of wild type laboratory HIV strain): 0.8 fold | Fold change in IC50 (Virco ID V052954, genotype 33F + 77I + 90M, vs mean IC50 of wild type laboratory HIV strain): 1.7 fold | Fold change in IC50 (Virco ID V052955, genotype 33F + 71V + 90M, vs mean IC50 of wild type laboratory HIV strain): 5.3 fold | Fold change in IC50 (Virco ID V052957, genotype 10I + 33F + 54V + 90M, vs mean IC50 of wild type laboratory HIV strain): 1.4 fold | Fold change in IC50 (Virco ID V052958, genotype 10I + 33F + 54V + 77I + 90M, vs mean IC50 of wild type laboratory HIV strain): 16.3 fold | Fold change in IC50 (Virco ID V052959, genotype 10I + 33F + 54V + 77I + 90M, vs mean IC50 of wild type laboratory HIV strain): 12.8 fold | Fold change in IC50 (Virco ID V052960, genotype 10I + 33F + 54V + 71V + 90M, vs mean IC50 of wild type laboratory HIV strain): 9.9 fold | Fold change in IC50 (Virco ID V052961, genotype 54V, vs mean IC50 of wild type laboratory HIV strain): 0.7 fold | Fold change in IC50 (Virco ID V052962, genotype 10I + 54V, vs mean IC50 of wild type laboratory HIV strain): 0.8 fold | Fold change in IC50 (Virco ID V052963, genotype 54V + 77I + 90M, vs mean IC50 of wild type laboratory HIV strain): 1.2 fold | Fold change in IC50 (Virco ID V052964, genotype 54V + 71V + 90M, vs mean IC50 of wild type laboratory HIV strain): 0.7 fold | Fold change in IC50 (Virco ID V052965, genotype 10I + 54V + 77I + 90M, vs mean IC50 of wild type laboratory HIV strain): 8.2 fold | Fold change in IC50 (Virco ID V052966, genotype 10I + 54V + 71V + 90M, vs mean IC50 of wild type laboratory HIV strain): 7.7 fold | Fold change in IC50 (Virco ID V052967, genotype 10I + 54V + 71V + 77I + 90M, vs mean IC50 of wild type laboratory HIV strain): 0.4 fold | Fold change in IC50 (Virco ID V053358, genotype 33F + 54V + 77I + 90M, vs mean IC50 of wild type laboratory HIV strain): 1.2 fold | Fold change in IC50 (Virco ID V053831, genotype 33F + 54V, vs mean IC50 of wild type laboratory HIV strain): 5.4 fold | Fold change in IC50 (Virco ID V053832, genotype 10I + 33F, vs mean IC50 of wild type laboratory HIV strain): 0.4 fold
